In the supplement of paper PMC10307832:

Key:
Selisistat + Trametinib = compound: C1CC(C2=C(C1)C3=C(N2)C=CC(=C3)Cl)C(=O)N [Selisistat] + CC(=O)Nc1cccc(-n2c(=O)n(C3CC3)c(=O)c3c(Nc4ccc(I)cc4F)n(C)c(=O)c(C)c32)c1 [Trametinib] (partner 0.02 µM); test: relative viability (nuclei count vs DMSO), 5 days (fraction); higher = more cells survive
How it was run: (§1)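 Relative viability equals treated-well nuclei counts divided by vehicle-well nuclei counts. Counts came from 4× images of lung cancer cell lines grown in 1536-well plates for 5 days after pin-tool dosing on the day after seeding. Dosing used one drug alone or a fixed anchor-drug dose plus five library-drug doses (not always all listed) in √10 steps, and values are medians of duplicate plates.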

Serdemetan + Dasatinib = compound: c1ccc2c(CCNc3ccc(Nc4ccncc4)cc3)c[nH]c2c1 [Serdemetan] + Cc1nc(Nc2ncc(C(=O)Nc3c(C)cccc3Cl)s2)cc(N2CCN(CCO)CC2)n1 [Dasatinib] (partner 0.075 µM); test: as above
How it was run: as §1

Cell Line: NCI-H520
- relative viability (Selisistat + Trametinib; first compound 0.4 µM): 0.545
- relative viability (Selisistat + Trametinib; first compound 1.265 µM): 0.599
- relative viability (Selisistat + Trametinib; first compound 4 µM): 0.651
- relative viability (Selisistat + Trametinib; first compound 12.65 µM): 0.681
- relative viability (Selisistat + Trametinib; first compound 40 µM): 0.637
- relative viability (Serdemetan + Dasatinib; first compound 0.04 µM): 0.244
- relative viability (Serdemetan + Dasatinib; first compound 0.1265 µM): 0.182
- relative viability (Serdemetan + Dasatinib; first compound 0.4 µM): 0.223
- relative viability (Serdemetan + Dasatinib; first compound 4 µM): 0.198

Cell Line: NCI-H1755
- relative viability (Selisistat + Trametinib; first compound 0.4 µM): 0.83
- relative viability (Selisistat + Trametinib; first compound 1.265 µM): 0.883
- relative viability (Selisistat + Trametinib; first compound 4 µM): 0.783
- relative viability (Selisistat + Trametinib; first compound 12.65 µM): 0.764
- relative viability (Selisistat + Trametinib; first compound 40 µM): 0.841
- relative viability (Serdemetan + Dasatinib; first compound 0.04 µM): 0.414
- relative viability (Serdemetan + Dasatinib; first compound 0.1265 µM): 0.446
- relative viability (Serdemetan + Dasatinib; first compound 0.4 µM): 0.404
- relative viability (Serdemetan + Dasatinib; first compound 1.265 µM): 0.24
- relative viability (Serdemetan + Dasatinib; first compound 4 µM): 0.306

Cell Line: NCI-H2023
- relative viability (Selisistat + Trametinib; first compound 0.4 µM): 0.608
- relative viability (Selisistat + Trametinib; first compound 1.265 µM): 0.473
- relative viability (Selisistat + Trametinib; first compound 4 µM): 0.607
- relative viability (Selisistat + Trametinib; first compound 12.65 µM): 0.47
- relative viability (Selisistat + Trametinib; first compound 40 µM): 0.573
- relative viability (Serdemetan + Dasatinib; first compound 0.04 µM): 0.521
- relative viability (Serdemetan + Dasatinib; first compound 0.1265 µM): 0.674
- relative viability (Serdemetan + Dasatinib; first compound 0.4 µM): 0.532
- relative viability (Serdemetan + Dasatinib; first compound 1.265 µM): 0.43
- relative viability (Serdemetan + Dasatinib; first compound 4 µM): 0.233

Cell Line: NCI-H2009
- relative viability (Selisistat + Trametinib; first compound 0.4 µM): 0.285
- relative viability (Selisistat + Trametinib; first compound 1.265 µM): 0.278
- relative viability (Selisistat + Trametinib; first compound 4 µM): 0.287
- relative viability (Selisistat + Trametinib; first compound 12.65 µM): 0.259
- relative viability (Selisistat + Trametinib; first compound 40 µM): 0.282
- relative viability (Serdemetan + Dasatinib; first compound 0.04 µM): 0.315
- relative viability (Serdemetan + Dasatinib; first compound 0.1265 µM): 0.326
- relative viability (Serdemetan + Dasatinib; first compound 0.4 µM): 0.31
- relative viability (Serdemetan + Dasatinib; first compound 1.265 µM): 0.25
- relative viability (Serdemetan + Dasatinib; first compound 4 µM): 0.221
